According to patent US20250319139A1, “METHODS FOR TREATING NEUROINFLAMMATION” (University of Virginia Patent Foundation, priority 2021, published 2025):

Legend:
[1] = tested on: IL-17; test: ELISA of IL-17 in the serum; assay type: in vivo, mouse; conditions: mice without MCAO; 1 mg/kg by gastric gavage after each valeric sodium 100 mg/kg intraperitoneal injection, 7 days
Method: (§1) Mice were weighed and anesthetized with isoflurane at 24 h after MCAO. Blood samples were obtained from the right heart after thoracotomy. Blood was centrifuged (13,000 g, 4° C.) after it had been placed at 4° C. for 2 h for the collection of serum. After the collection of blood, mice were perfused with 4° C. saline for brain tissue harvesting. The cerebral cortex (anteroposterior: −1.5 to 2.5 mm, mediolateral: 1.0 to 3.0 mm) was dissected out. All dissection procedures were performed on ice.
(§2) IL-10, IL-17, IL-1β and IL-6 in the serum and brain were detected by using ELISA kits (catalog number: M1000B, M1700, MLB00C and D6050, R&D SYSTEM, Inc., Minneapolis, MN, USA) as we described before. The brain tissues were homogenized on ice in the RIPA buffer containing 25 mM Tris-HCl with pH 7.6, 150 mM NaCl, 1% sodium deoxycholate and 0.1% SDS (catalog number: 89901, Thermo Scientific, Rockford, IL, USA) and a protease inhibitor cocktail containing 10 mg/ml aproteinin, 5 mg/ml peptastin, 5 mg/ml leupetin and 1 mM phenylmethane sulfonylfluoride (catalog number: SRE0055, Sigma-Aldrich, St. Louis, MO, USA). The supernatant was collected for ELISA detection after being centrifuged for 20 min (13,000 g, 4° C.) and the protein concentration was determined by the BCA method. Cytokines in the serum and supernatant of brain were detected according to the manufacturer's instruction. The amount of IL-10, IL-17, IL-1β and IL-6 in each sample in the brain was normalized by its protein content.

[2] = tested on: IL-17; test: ELISA of IL-17 in the brain; assay type: in vivo, mouse; conditions: mice without MCAO; 1 mg/kg by gastric gavage after each valeric sodium 100 mg/kg intraperitoneal injection, 7 days
Method: as §1, §2

[3] = tested on: C57BL/6J mice; test: Barnes maze test, young adult mice; assay type: in vivo, mouse; conditions: surgery mice; intracerebroventricular 10 μg/kg at 0, 24, 48 and 72 h after surgery; vs solvent
[4] = tested on: C57BL/6J mice; test: Novel object recognition test, young adult mice; assay type: in vivo, mouse; conditions: surgery mice; intracerebroventricular 10 μg/kg at 0, 24, 48 and 72 h after surgery; vs solvent
[5] = tested on: gut microbiota; conditions: 300 mg/kg intraperitoneal once daily for 5 consecutive days; previous study [20]; cited from earlier work
[6] = tested on: C57BL/6J mice; test: Infarct volume after MCAO; assay type: in vivo, mouse; conditions: young mice, 100 mg/kg intraperitoneal 1 h before and 6 h after 120-min MCAO; 24 h after MCAO; vs saline
Method: As we described previously, left MCAO with intravascular suture technique was performed to mice. Briefly, mice were anesthetized with isoflurane and the rectal temperature was maintained at 37±0.5° C. by the feedback-controlled heating system. A monofilament nylon suture (catalog number: 1622-A1, Beijing CiNontech Co. Ltd., Beijing, China) was used to induce the MCAO via the external carotid artery to the left internal carotid artery until slight resistance was felt. […]
The infarct volumes were assessed 24 h after MCAO by a blinded investigator after 2,3,5-triphenyltetrazolium chloride staining. […] The average infarct area of the rostral and caudal sides of each slice was calculated. The infarct volume of the brain slice was calculated by multiplying the average infarct area of the slice by the thickness of the slice. […] To correct the cerebral edema and differential shrinkage resulting from brain ischemia and tissue processing, the corrected brain infarct volume was calculated: corrected brain infarct volume in percentage=[right hemisphere volume-(left hemisphere volume-left infarction volume)]×100/right hemisphere volume.

[7] = tested on: C57BL/6J mice; test: Neurological deficit scores after MCAO; assay type: in vivo, mouse; conditions: young mice, 100 mg/kg intraperitoneal 1 h before and 6 h after 120-min MCAO; 24 h after MCAO; vs saline
Method: (§3) As we described previously, left MCAO with intravascular suture technique was performed to mice. Briefly, mice were anesthetized with isoflurane and the rectal temperature was maintained at 37±0.5° C. by the feedback-controlled heating system. A monofilament nylon suture (catalog number: 1622-A1, Beijing CiNontech Co. Ltd., Beijing, China) was used to induce the MCAO via the external carotid artery to the left internal carotid artery until slight resistance was felt. Mice were re-anesthetized by isoflurane and the sutures were removed at 60 min (only for the set of experiments of old mice with fecal transplantation; this selection was because of a high mortality rate after a longer MCAO) or 120 min (for all other sets of experiments) after the onset of MCAO.
Neurological deficit scores were tested 24 h after the stroke by a blinded investigator [25, 26]. Briefly, mice were scored as follows: zero, no apparent deficits; one, failure to extend right forepaw fully; two, decreased grip of the right forelimb; three, spontaneous movement in all directions, contralateral circling only if pulled by the tail; four, circling or walking to the right; five, walking only if stimulated; six, unresponsiveness to stimulation and with depressed level of consciousness; and seven, dead.

[8] = tested on: C57BL/6J mice; test: Rotarod test after MCAO; assay type: in vivo, mouse; conditions: young mice, 100 mg/kg intraperitoneal 1 h before and 6 h after 120-min MCAO; 24 h after MCAO; vs saline
Method: as §3
Rotarod test was performed to evaluate the motor coordination as we described before. All mice received the training for three continuous days before the induction of brain ischemia. The formal test was performed just 24 h before and 24 h after the MCAO. […] The latency and the speed were recorded when the tested mice fell off the rod. […] The speed-latency index, which is latency(s)×speed (rpm), was calculated. The ratio of mean index of the five trials obtained after MCAO and before MCAO was calculated to reflect the change in coordinate function of each mouse.

[9] = tested on: IL-1β; test: ELISA of IL-1β in the brain; assay type: in vivo, mouse; conditions: young mice, 100 mg/kg intraperitoneal 1 h before and 6 h after 120-min MCAO; 24 h after MCAO; vs saline
Method: as §2, with “Mice were weighed and anesthetized with isoflurane at 24 h after MCAO. Blood samples were obtained from the right heart after thoracotomy. Blood was centrifuged (13,000 g, 4° C.) after it had been placed at 4° C. for 2 h for the collection of serum. After the collection of blood, mice were perfused with 4° C. saline for brain tissue harvesting. The cerebral cortex (anteroposterior: -1.5 to 2.5 mm, mediolateral: 1.0 to 3.0 mm) was dissected out. All dissection procedures were performed on ice. IL-10,” for “IL-10,”, “[…],” for “peptastin,”, “The amount of IL-10, IL-17, IL-1β and IL-6 in each sample in the brain was normalized by its protein content.” left out

[10] = tested on: IL-6; test: ELISA of IL-6 in the brain; assay type: in vivo, mouse; conditions: young mice, 100 mg/kg intraperitoneal 1 h before and 6 h after 120-min MCAO; 24 h after MCAO; vs saline
Method: as §2, with “Mice were weighed and anesthetized with isoflurane at 24 h after MCAO. Blood samples were obtained from the right heart after thoracotomy. Blood was centrifuged (13,000 g, 4° C.) after it had been placed at 4° C. for 2 h for the collection of serum. After the collection of blood, mice were perfused with 4° C. saline for brain tissue harvesting. The cerebral cortex (anteroposterior: -1.5 to 2.5 mm, mediolateral: 1.0 to 3.0 mm) was dissected out. All dissection procedures were performed on ice. IL-10,” for “IL-10,”, “[…],” for “peptastin,”, “The amount of IL-10, IL-17, IL-1β and IL-6 in each sample in the brain was normalized by its protein content.” left out

[11] = Valeric acid in the blood by ELISA (pilot dosage experiment); assay type: in vivo, mouse; conditions: young mice, 100 mg/kg intraperitoneal twice at an interval of 7 h; blood 3 h after second injection; pilot study
Method: A pilot experiment was performed to determine the dosage of valeric acid used in this study. Eight-week old mice were divided into two groups: Y-Saline group that received two intraperitoneal 100 μl normal saline injections at an interval of 7 h, and Y-Valeric group that received two intraperitoneal 100 mg/kg in 100 μl valeric sodium injections at an interval of 7 h. One group of 18-month old mice that was labeled O-Saline received two intraperitoneal 100 μl normal saline injections at an interval of 7 h. Blood was harvested 3 h after the second injection of valeric sodium or normal saline to measure valeric acid.
Valeric acid in the blood harvested from the experiment to determine the dosage of valeric acid injected intraperitoneally was measured by using an ELISA kit (catalog number: JM-12270M1, Jingmei Biotechnology, Jiangsu, China) following the manufacturer's instructions.

[12] = tested on: C3; test: C3 in the hippocampus by ELISA; assay type: in vivo, mouse; conditions: intracerebroventricular injection at surgery; hippocampus 48 h after surgery
Method: (§4) IL-1β, IL-6, C3 and GDNF in the hippocampus were detected by using ELISA kits. For testing the IL-1β, IL-6 and GDNF, brain tissues were homogenized on ice in the RIPA buffer containing 25 mM Tris-HCl with pH 7.6, 150 mM NaCl, 1% sodium deoxycholate, 0.1% SDS and a protease inhibitor cocktail containing 10 mg/ml aproteinin, 5 mg/ml peptastin, 5 mg/ml leupetin and 1 mM phenylmethane sulfonylfluoride. For C3 testing, brain tissues were homogenized on ice in the PTR buffer (supplied in the kit). The supernatant was collected for ELISA detection after the homogenate was centrifuged at 13,000 g for 20 min at 4° C. and the protein concentration was determined by the BCA protein assay (Bio-Rad, Hemel Hempstead, Herts, UK). IL-1β, IL-6, C3 and GDNF in supernatant of brain were detected according to the manufacturer's instruction for ELISA, and the amount of them in each sample in the brain was normalized by its total protein content and was expressed as pg/mg protein.

[13] = tested on: IL-6; test: IL-6 in the hippocampus by ELISA; assay type: in vivo, mouse; conditions: intracerebroventricular injection at surgery; hippocampus 48 h after surgery
Method: as §4

[14] = tested on: IL-1β; test: IL-1β in the hippocampus by ELISA; assay type: in vivo, mouse; conditions: intracerebroventricular injection at surgery; hippocampus 48 h after surgery
Method: as §4

## C[C@]1(C(=O)N(CCCC(=O)O)Cc2cccc(Cl)c2)CCN1C(=O)c1csc2ccccc12 [GLPG-0974]
[1]
  increase of IL-17 in the blood caused by valeric acid: blocked the increase
[2]
  increase of IL-17 in the brain (cerebral cortex) caused by valeric acid: blocked the increase

## NC(N)=NCCC[C@H](NC(=O)COCC(c1ccccc1)c1ccccc1)C(=O)O [SB290157]
[3]
  time to identify target box in Barnes maze: took less time
[4]
  performance in novel object recognition test: improved the performance

## Cc1nnc(SCC2=C(C(=O)O)N3C(=O)[C@@H](NC(=O)Cn4cnnn4)[C@H]3SC2)s1 [cefazolin]
[5]
  gut microbiota in the colon by 16S rRNA analyses: almost undetectable level

## CCCCC(=O)[O-].[Na+] [valeric sodium]
[6]
  infarct volume: larger
[7]
  neurological deficit scores: worse
[8]
  performance on rotarod: poorer performance
[9]
  IL-1β in the ischemic penumbral brain tissues: increased
[10]
  IL-6 in the ischemic penumbral brain tissues: increased
[11]
  concentrations of valeric acid in the blood: a level similar to that in the old mice

B1: GDNF: recombinant mouse GDNF (glia-derived nerve factor) (protein, UniProt P48540 78-211, looked up)
Glial cell line-derived …: SPDKQAAALPRRERNRQAAAASPENSRGKGRRGQRGKNRGCVLTAIHLNVTDLGLGYETKEELIFRYCSGSCESAETMYDKILKNLSRSRRLTSDKVGQACCRPVAFDDDLSFLDDNLVYHILRKHSAKRCGCI
[12]
  C3 levels in the hippocampus after surgery: reduced
[13]
  IL-6 levels in the hippocampus after surgery: reduced
[14]
  IL-1β levels in the hippocampus after surgery: reduced

B2: heat-inactivated GDNF: heat-denatured (5 min at 100° C.) GDNF solution (protein, UniProt P48540 78-211, looked up)
Glial cell line-derived …: B1 Glial cell line-derived …
modifications: heat-denatured
notes: heat-denatured (5 min at 100° C.) GDNF solution
[12]
  C3 levels in the hippocampus after surgery: not
[13]
  IL-6 levels in the hippocampus after surgery: not
